Experimental data: paper PMC10892041, “Vanadium Complexes with Thioanilide Derivatives of Amino Acids: Inhibition of Human Phosphatases and Specificity in Various Cell Models of Metabolic Disturbances” (Pharmaceuticals, 2024)

Experiments:
[1] = molecular target: T1, PTP1B (Homo sapiens, UniProt P18031); experiment: Inhibition of human recombinant tyrosine phosphatase PTP1B (DiFMUP fluorescence); assay type: biochemical; details: for Inhibition of PTP1B, percentage of inhibition of the control: 1 µM, control solvent only, SD did not exceed 6%; for Log IC50 ± SD PTP1B: logarithm of IC50; for IC50: read-out: IC50 PTP1B
T1 construct: purchased Sigma-Aldrich
T1 sequence (P18031 1-435): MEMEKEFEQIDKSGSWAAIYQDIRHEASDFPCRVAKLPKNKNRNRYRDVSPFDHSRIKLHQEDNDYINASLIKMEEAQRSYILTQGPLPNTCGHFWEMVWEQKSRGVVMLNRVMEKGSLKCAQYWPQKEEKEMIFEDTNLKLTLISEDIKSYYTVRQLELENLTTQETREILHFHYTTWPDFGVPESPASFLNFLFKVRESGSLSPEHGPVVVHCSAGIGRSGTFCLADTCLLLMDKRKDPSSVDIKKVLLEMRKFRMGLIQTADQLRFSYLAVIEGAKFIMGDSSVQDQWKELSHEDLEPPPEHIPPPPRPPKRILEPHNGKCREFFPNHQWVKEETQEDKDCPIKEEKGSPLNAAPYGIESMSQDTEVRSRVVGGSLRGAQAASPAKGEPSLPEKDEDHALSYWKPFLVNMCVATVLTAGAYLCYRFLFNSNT
Method in brief: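 Human recombinant PTP1B (final 50 ng/mL) in buffer of 25 mM MOPS, 50 mM NaCl, 1 mM DTT and 0.05% Tween-20 (pH 7.0) was dispensed onto test compound in black 384-well plates. After 10 min, DiFMUP was added to 0.1 mM. Plates were incubated 20 min at 23 °C and fluorescence read (ex 355, em 560 nm). Assays were run in triplicate, with inhibition relative to enzyme-plus-vehicle control and IC50 fitted in GraphPad Prism.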

[2] = molecular target: T2, LAR (Homo sapiens, UniProt P10586); experiment: Inhibition of human recombinant tyrosine phosphatase LAR (DiFMUP fluorescence); assay type: biochemical; details: for Inhibition of LAR, percentage of inhibition of the control: 1 µM, control solvent only, SD did not exceed 6%
T2 sequence (P10586 1352-1607 limits assumed): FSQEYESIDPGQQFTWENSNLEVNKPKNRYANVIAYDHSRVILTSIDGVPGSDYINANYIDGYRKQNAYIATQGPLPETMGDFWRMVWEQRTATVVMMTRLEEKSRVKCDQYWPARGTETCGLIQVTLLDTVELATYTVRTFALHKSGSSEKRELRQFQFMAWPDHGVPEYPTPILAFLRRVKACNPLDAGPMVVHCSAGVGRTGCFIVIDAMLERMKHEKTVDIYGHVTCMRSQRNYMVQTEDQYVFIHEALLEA
Method in brief: (§1)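 Human recombinant phosphatases (SHP1 400 ng/mL, SHP2 50 ng/mL, LAR 5 ng/mL final) were pre-incubated 10 min with compound in 25 mM MOPS pH 7.0, 50 mM NaCl, 1 mM DTT, 0.05% Tween-20. DiFMUP (0.1 mM final) was added for 20 min at 23 °C and fluorescence read at 355/560 nm. Screening used 1 µM compound (% inhibition vs vehicle); IC50 also reported.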

[3] = molecular target: T3, SHP1 (Homo sapiens, UniProt P29350); experiment: Inhibition of human recombinant tyrosine phosphatase SHP1 (DiFMUP fluorescence); assay type: biochemical; details: for Inhibition of SHP1, percentage of inhibition of the control: 1 µM, control solvent only, SD did not exceed 6%; for Log IC50 ± SD SHP1: logarithm of IC50
T3 construct: purchased Sigma-Aldrich
T3 sequence (P29350 whole entry): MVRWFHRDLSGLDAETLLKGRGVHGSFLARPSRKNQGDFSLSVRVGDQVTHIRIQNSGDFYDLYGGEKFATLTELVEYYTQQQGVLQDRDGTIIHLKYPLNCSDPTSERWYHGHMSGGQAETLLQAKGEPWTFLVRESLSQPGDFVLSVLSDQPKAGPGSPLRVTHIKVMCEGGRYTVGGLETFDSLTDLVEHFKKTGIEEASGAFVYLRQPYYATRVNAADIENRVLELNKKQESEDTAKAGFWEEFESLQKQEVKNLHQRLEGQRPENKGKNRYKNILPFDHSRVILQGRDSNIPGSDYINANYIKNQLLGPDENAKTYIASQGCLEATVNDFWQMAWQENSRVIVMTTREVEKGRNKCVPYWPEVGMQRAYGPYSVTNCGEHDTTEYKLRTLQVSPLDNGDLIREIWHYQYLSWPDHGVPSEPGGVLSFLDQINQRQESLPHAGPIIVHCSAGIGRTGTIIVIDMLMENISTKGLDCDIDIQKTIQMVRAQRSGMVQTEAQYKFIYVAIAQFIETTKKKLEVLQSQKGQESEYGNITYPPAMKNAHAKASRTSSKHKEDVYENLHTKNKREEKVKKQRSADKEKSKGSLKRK
Method in brief: as §1

[4] = system: myocytes C2C12; experiment: Scintillation proximity assay, transport of [14C]-deoxy-D-glucose into myocytes C2C12; assay type: cell-based, mouse; details: 50 µM; control solvent only
Procedure: The myocyte C2C12 cell line (ATCC CRL-1772), a subclone of myoblasts from mouse muscles, was cultured according to standard protocol in DMEM supplemented with 10% fetal calf serum, 100 IU/ml penicillin, and […] streptomycin at 37 °C in 5% CO2. Cells were pleated on a 96-well microplate and after reach confluence were differentiated in medium with 2% horse serum. Differentiation medium was changed every 72 h.
(§2) Scintillation proximity assay (SPA) is a method to measure the real-time accumulation of radiolabeled substrates by adherent cells with no filtration needed. Radioactivity concentrated closer to the scintillator embedded in the plastic bottom of each well provides a stronger signal than the radiolabeled substrate in the culture medium. Uptake of radiolabeled 2-deoxy-D-[U-14C]-glucose was conducted based on previous descriptions.
After 24 h incubation, the tested complexes were added. After 2 h incubation at 37 °C in 5% CO2, the medium was changed to low-glucose medium (1000 mg/L), and the tested complexes were added again, with further incubation for 4 h being conducted.
(§3) For cells proceeded as above, 2-deoxy-D-[U-14C]-glucose (250–350 mCi/mmol, NEC720A, PerkinElmer) solution in KRB with a total activity of 0.03 mCi was added to each well. […] Non-specific radioactivity was subtracted from each result (cpm). Two independent experiments with triplicates were conducted.

[5] = system: adipocytes 3T3-L1; experiment: Scintillation proximity assay, transport of [14C]-deoxy-D-glucose into adipocytes 3T3-L1; assay type: cell-based, mouse; details: 50 µM
Procedure: Adipocytes 3T3-L1 cell line (ATCC CRL-11605) derived from fibroblasts from mouse embryo tissue were cultured according to standard protocol in DMEM medium supplemented with 10% bovine calf serum, 100 IU/mL penicillin, and […] streptomycin at 37 °C in 5% CO2. Cells were seeded in 96-well poly-D-lysine-coated plates and cultured to reach confluency.
as §2
Adipocytes were washed and the medium was changed to the basal medium. After 24 h incubation, the tested complexes were added. After 2 h incubation at 37 °C in 5% CO2, the medium was changed to DMEM medium without glucose, with 0.1% BSA free from fatty acid, […] L-glutamine, and […] pyruvate. The tested complexes were added again, and further incubation for 4 h was conducted.
as §3

Structure (SMILES): Cc1occc(=O)c1[O-].Cc1occc(=O)c1[O-].[O]=[V+2] [BMOV, bis(maltolato)oxidovanadium(IV), reference compound]
- Inhibition of PTP1B, percentage of inhibition of the control [1]: 77%
- Log IC50 ± SD PTP1B [1]: −6.83 ± 0.02
- IC50 [1]: 149 nM
- IC50 [2]: 140 nM
- Inhibition of LAR, percentage of inhibition of the control [2]: 58%
- IC50 [3]: 14 nM
- Inhibition of SHP1, percentage of inhibition of the control [3]: 76%
- Log IC50 ± SD SHP1 [3]: −7.86 ± 0.03
- Transport of [14C]-deoxy-D-glucose into C2C12 myocytes, % of the control [4]: 125 % of control
- Transport of [14C]-deoxy-D-glucose into 3T3-L1 adipocytes, % of control [5]: low activity

Structure (SMILES): O=S(=O)([O-])[O-].[O]=[V+2] [VOSO4, reference compound]
- Inhibition of PTP1B, percentage of inhibition of the control [1]: 62%
- Log IC50 ± SD PTP1B [1]: −7.00 ± 0.07
- IC50 [1]: 99 nM
- IC50 [2]: 95 nM
- Inhibition of LAR, percentage of inhibition of the control [2]: 44%
- IC50 [3]: 17 nM
- Inhibition of SHP1, percentage of inhibition of the control [3]: 70%
- Log IC50 ± SD SHP1 [3]: −7.77 ± 0.02
- Transport of [14C]-deoxy-D-glucose into C2C12 myocytes, % of the control [4]: 110 % of control
- Transport of [14C]-deoxy-D-glucose into 3T3-L1 adipocytes, % of control [5]: low activity
